{"source": "patent US20240041878A1", "about": "“APELIN RECEPTOR MODULATORS FOR TREATMENT OF A DISORDER OR DISEASE ASSOCIATED WITH BBB PERMEABILITY” (BioAge Labs, Inc., priority 2022, published 2024)", "key": {"[1]": {"test_system": "Mouse astrocyte cells", "test": "CXCL1 and IL-6 ELISA of astrocyte culture media after RAC treatment", "assay_type": "cell-based", "details": "RAC+APL [50 nM]", "protocol": "To stimulate astrocytes into a reactive state found in aging and neurodegenerative diseases per previous publications (Liddelow et al., 2017; Barbar et al., 2020), a combination of the cytokines TNF-α and IL-1α, and complement factor C1q, were added at 30 ng/mL, 3 ng/mL, and 400 ng/mL, respectively, into astrocyte culture media to make 'reactive astrocyte cocktail' (RAC) media. […] Bachem, Cat. #4029110), BAY-11-7082 (50 μM; Abcam, Cat. #ab141228) or equal volume of vehicle (0.01% DMSO in PBS) (hereafter referred to as 'RAC treatment'). Cells in Groups 3-6 were treated with RAC for 24 hours, with or without the test compounds (n=4 per group). • Group 1: Control [CON] • Group 2: CON+BGE-105 (50 nM) [CON+105] • Group 3: Reactive control treated with RAC only [RAC] • Group 4: RAC+BGE-105 (50 nM) [RAC+105] • Group 5: RAC+Pyrm-Apelin-13 (50 nM) • Group 6: RAC+BAY-11-7082 (NF-κB inhibitor; 50 μM) [RAC+BAY] Media from each tested cell group was collected for cytokine release analysis. Cells were lysed for RNA collection and RT-PCR was performed to synthesis cDNA under standard conditions. Next, transcriptome analysis was performed to determine the expression level of astrocyte genes or astrocyte responsive genes. Changes of expression was normalized to β-actin (FIGS. 8 and 9). Exemplary biomarkers include CCL2, CXCL10, CXCL11, CXCL1, CXCL2, CXCL3, CXCL8, EDN1, […]3, CIS, CTRL, C3, CFB, VEGF, and IL-6. For analysis of cytokines secreted by astrocytes, culture media was collected after RAC treatment, centrifuged at 10,000 RPM for 5 minutes to pellet any debris, and supernatant was transferred to a new tube and assayed immediately or frozen at -80° C. For individual analysis of CXCL1 or IL-6 concentrations, cell culture supernatant was diluted 1:50 or 1:10, respectively, and assessed using mouse-specific ELISA kits per manufacturer's protocols (R&D Systems, Cat. #DY453 and #DY406)."}, "[2]": {"test_system": "Mouse primary astrocytes", "test": "Astrocyte glutamate uptake", "assay_type": "cell-based", "details": "RAC+APL [50 nM] versus RAC", "protocol": "To stimulate astrocytes into a reactive state found in aging and neurodegenerative diseases per previous publications (Liddelow et al., 2017; Barbar et al., 2020), a combination of the cytokines TNF-α and IL-1α, and complement factor C1q, were added at 30 ng/mL, 3 ng/mL, and 400 ng/mL, respectively, into astrocyte culture media to make 'reactive astrocyte cocktail' (RAC) media. […] Bachem, Cat. #4029110), BAY-11-7082 (50 μM; Abcam, Cat. #ab141228) or equal volume of vehicle (0.01% DMSO in PBS) (hereafter referred to as 'RAC treatment'). […] Fresh HBSS was added to each well and 100 μM glutamate (Sigma, Cat. #G1251) was added to each well. Empty wells not containing cells were filled with HBSS and 100 μM [NT] negative control. Cells were incubated at room temperature for 3 hours before HBSS was collected and glutamate concentration determined by colorimetric assay (Sigma, Cat. #MAK004). Relative change in glutamate uptake was calculated compared to negative control wells."}}, "data": [{"substance": "(Pyr^1)-Apelin-13 [reference compound]", "values": [{"measurement": "CXCL1 concentration/release compared with BGE-105 [50 nM] group", "setting": "[1]", "value": "no significant difference"}, {"measurement": "IL-6 concentration/release compared with BGE-105 [50 nM] group", "setting": "[1]", "value": "no significant difference"}, {"measurement": "percentage of glutamate uptake in RAC astrocytes", "setting": "[2]", "value": "significantly and statistically increased"}]}]}
